In patent publication US20180208605A1, “Substituted Aza Compounds as IRAK-4 Inhibitors” (AURIGENE DISCOVERY TECHNOLOGIES LIMITED, priority 2015, published 2018):
Counter-ions that a name gives are not always drawn.

Target: T1, recombinant IRAK-4 kinase (Homo sapiens, UniProt Q9NWZ3)
T1 construct: purchased Millipore, USA
T1 sequence (Q9NWZ3 1-460): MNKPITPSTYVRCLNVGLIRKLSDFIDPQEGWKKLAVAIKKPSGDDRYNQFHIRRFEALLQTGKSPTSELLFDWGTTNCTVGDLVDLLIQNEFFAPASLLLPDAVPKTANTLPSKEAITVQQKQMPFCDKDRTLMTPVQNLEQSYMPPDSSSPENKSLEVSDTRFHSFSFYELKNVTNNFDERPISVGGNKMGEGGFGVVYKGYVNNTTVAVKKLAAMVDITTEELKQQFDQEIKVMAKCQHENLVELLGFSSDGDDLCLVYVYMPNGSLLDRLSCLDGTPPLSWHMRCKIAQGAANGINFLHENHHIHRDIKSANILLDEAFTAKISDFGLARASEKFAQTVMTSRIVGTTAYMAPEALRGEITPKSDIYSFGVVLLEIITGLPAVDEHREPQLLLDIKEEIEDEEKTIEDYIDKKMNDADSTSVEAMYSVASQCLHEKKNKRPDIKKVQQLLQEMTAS
Test: IRAK-4 Biochemical Assay (TR-FRET, percent inhibition)
Settings: TR-FRET, 20 μM ATP, 100 nM Biotin Histone H3; for inhibition at 0.1 µM: read-out: % inhibition of IRAK-4 @0.1 μM, compound at 0.1 μM; for inhibition at 1 µM: read-out: % inhibition of IRAK-4 @ 1 μM, compound at 1 μM
Summary of the method: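 IRAK-4 pre-incubated with compound 30 min at room temperature in Tris-HCl pH 7.5 buffer with MgCl2, MnCl2 and DTT, then reacted 30 min with 100 nM biotin-histone H3 and 20 μM ATP. EDTA stop with Eu-anti-phospho-H3 (Ser10) and APC-streptavidin. Percent inhibition derived from the 665/615 nm emission ratio at 340 nm excitation.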

Compound	inhibition at 0.1 µM	inhibition at 1 µM	% inhibition of IRAK-4 @0.1 μM (compound at 0.1 μM)	% inhibition of IRAK-4 @ 1 μM (compound at 1 μM)
Nc1ccc(-c2cccc(C(=O)Nc3cc4sc(N5CCOCC5)nc4nc3N3CCCCC3)n2)cn1 [Example 75, 6′-amino-N-(2-morpholino-5-(piperidin-1-yl)thiazolo[4,5-b]pyridin-6-yl)-[2,3′-bipyridine]-6-carboxamide]	98%	78%	–	–
O=C(Nc1cc2sc(N3CCOCC3)nc2nc1N1CCCCC1)c1cccc(N2CCC(CO)C2)n1 (centres unmarked) [Example 77, 6-(3-(hydroxymethyl)pyrrolidin-1-yl)-N-(2-morpholino-5-(piperidin-1-yl)thiazolo[4,5-b]pyridin-6-yl)picolinamide]	98%	99%	–	–
O=C(Nc1cc2sc(N3CCOCC3)nc2nc1N1CCCCC1)c1cccc(N2CCCC(CO)C2)n1 (centres unmarked) [Example 78, 6-(3-(hydroxymethyl)piperidin-1-yl)-N-(2-morpholino-5-(piperidin-1-yl)thiazolo[4,5-b]pyridin-6-yl)picolinamide]	99%	96%	–	–
NCC(=O)OC1CCN(c2cccc(C(=O)Nc3cc4sc(N5CCOCC5)nc4nc3N3CCOCC3)n2)C1 (centres unmarked) [Example 79, 1-(6-((2,5-dimorpholinothiazolo[4,5-b]pyridin-6-yl)carbamoyl)pyridin-2-yl)pyrrolidin-3-yl glycinate]	70%	96%	–	–
O=C(Nc1cc2sc(N3CCOCC3)nc2nc1N1CCCCC1)c1cccc(N2CCC(C(=O)O)CC2)n1 [Example 80, 1-(6-((2-morpholino-5-(piperidin-1-yl)thiazolo[4,5-b]pyridin-6-yl)carbamoyl)pyridin-2-yl)piperidine-4-carboxylic acid]	–	–	96%	99%
O=C(Nc1cc2sc(N3CCOCC3)nc2nc1N1CCCCC1)c1cccc(N2C3CCC2CC(O)C3)n1 (centres unmarked) [Example 81, 6-(3-hydroxy-8-azabicyclo[3.2.1]octan-8-yl)-N-(2-morpholino-5-(piperidin-1-yl)thiazolo[4,5-b]pyridin-6-yl)picolinamide]	88%	94%	–	–
NC(=O)C1CCN(c2cccc(C(=O)Nc3cc4sc(N5CCOCC5)nc4nc3N3CCCCC3)n2)CC1 [Example 82, 6-(4-carbamoylpiperidin-1-yl)-N-(2-morpholino-5-(piperidin-1-yl)thiazolo[4,5-b]pyridin-6-yl)picolinamide]	93%	98%	–	–
Nc1cc(-c2cccc(C(=O)Nc3cc4sc(N5CCOCC5)nc4nc3N3CCCCC3)n2)ccn1 [Example 83, 2′-amino-N-(2-morpholino-5-(piperidin-1-yl)thiazolo[4,5-b]pyridin-6-yl)-[2,4′-bipyridine]-6-carboxamide]	99%	98%	–	–
Cc1ccc(C(=O)Nc2cc3sc(N4CCOCC4)nc3nc2N2CCCCC2)nc1N1CC[C@H](O)C1 [Example 84, (S)-6-(3-hydroxypyrrolidin-1-yl)-5-methyl-N-(2-morpholino-5-(piperidin-1-yl)thiazolo[4,5-b]pyridin-6-yl)picolinamide]	94%	98%	–	–
Cc1ccc(C(=O)Nc2cc3sc(N4CCOCC4)nc3nc2N2CCCCC2)nc1-c1ccc(N)nc1 [Example 85, 6′-amino-3-methyl-N-(2-morpholino-5-(piperidin-1-yl)thiazolo[4,5-b]pyridin-6-yl)-[2,3′-bipyridine]-6-carboxamide]	101%	100%	–	–
Cc1cc(-c2nc(C(=O)Nc3cc4oc(N5CCOCC5)nc4nc3N3CC(C)(C)CC3=O)co2)ccn1 [Example 86, N-(5-(4,4-dimethyl-2-oxopyrrolidin-1-yl)-2-morpholinooxazolo[4,5-b]pyridin-6-yl)-2-(2-methylpyridin-4-yl)oxazole-4-carboxamide]	65%	57%	–	–
Cc1cc(-c2nc(C(=O)Nc3cc4oc(N5CCOCC5)nc4nc3N3CCCC3=O)co2)ccn1 [Example 89, 2-(2-methylpyridin-4-yl)-N-(2-morpholino-5-(2-oxopyrrolidin-1-yl)oxazolo[4,5-b]pyridin-6-yl)oxazole-4-carboxamide hydrochloride]	26%	73%	–	–

Second part, the compound after the results:

inhibition at 0.1 µM	inhibition at 1 µM	% inhibition of IRAK-4 @0.1 μM (compound at 0.1 μM)	% inhibition of IRAK-4 @ 1 μM (compound at 1 μM)	Compound
92%	97%	–	–	O=C(Nc1cc2sc(N3CCOCC3)nc2nc1N1CCOCC1)c1cccc(N2CCC(O)C2)n1 (centres unmarked) [Example 76, N-(2,5-dimorpholinothiazolo[4,5-b]pyridin-6-yl)-6-(3-hydroxypyrrolidin-1-yl)picolinamide]
21%	57%	–	–	Nc1cccc(-c2nc(C(=O)Nc3cc4oc(N5CCOCC5)nc4nc3N3CC[C@@H](O)C3)co2)n1 [Example 87, (R)-2-(6-aminopyridin-2-yl)-N-(5-(3-hydroxypyrrolidin-1-yl)-2-morpholinooxazolo[4,5-b]pyridin-6-yl)oxazole-4-carboxamide hydrochloride]
15%	–	–	–	Nc1cc(-c2nc(C(=O)Nc3cc4oc(N5CCOCC5)nc4nc3N3CC[C@@H](O)C3)co2)c(Cl)cn1 [Example 88, (R)-2-(2-amino-5-chloropyridin-4-yl)-N-(5-(3-hydroxypyrrolidin-1-yl)-2-morpholinooxazolo[4,5-b]pyridin-6-yl)oxazole-4-carboxamide]
87%	97%	–	–	Nc1ccc(-c2cccc(C(=O)Nc3cc4oc(N5CCOCC5)nc4nc3N3CC[C@@H](O)C3)n2)cn1 [Example 90, (R)-6′-amino-N-(5-(3-hydroxypyrrolidin-1-yl)-2-morpholinooxazolo[4,5-b]pyridin-6-yl)-[2,3′-bipyridine]-6-carboxamide hydrochloride]
45%	92%	–	–	Cc1cc(-c2ccc(C(=O)Nc3cc4oc(N5CCOCC5)nc4nc3N3CC[C@@H](O)C3)o2)ccn1 [Example 91, (R)-N-(5-(3-hydroxypyrrolidin-1-yl)-2-morpholinooxazolo[4,5-b]pyridin-6-yl)-5-(2-methylpyridin-4-yl)furan-2-carboxamide hydrochloride]
78%	96%	–	–	Nc1ccc(-c2cccc(C(=O)Nc3cc4oc(N5CCOCC5)nc4nc3N3CCOCC3)n2)cn1 [Example 92, 6′-amino-N-(2,5-dimorpholinooxazolo[4,5-b]pyridin-6-yl)-[2,3′-bipyridine]-6-carboxamide hydrochloride]
87%	93%	–	–	Nc1cccc(-c2nc(C(=O)Nc3cc4oc(N5CCOCC5)nc4nc3N3CCCCC3)co2)n1 [Example 93, 2-(6-aminopyridin-2-yl)-N-(2-morpholino-5-(piperidin-1-yl)oxazolo[4,5-b]pyridin-6-yl)oxazole-4-carboxamide]
12%	60%	–	–	C[C@H](O)Cn1cc(-c2cccc(C(=O)Nc3cc4oc(N5CCOCC5)nc4nc3N3CC[C@@H](O)C3)n2)cn1 [Example 94, 6-(1-((S)-2-hydroxypropyl)-1H-pyrazol-4-yl)-N-(5-((R)-3-hydroxypyrrolidin-1-yl)-2-morpholinooxazolo[4,5-b]pyridin-6-yl)picolinamide]
80%	97%	–	–	Cc1cc(-c2nc(C(=O)Nc3cc4oc(N5CCOCC5)nc4nc3N3CC[C@@H](OCC4CC4)C3)co2)ccn1 [Example 95, (R)-N-(5-(3-(cyclopropylmethoxy)pyrrolidin-1-yl)-2-morpholinooxazolo[4,5-b]pyridin-6-yl)-2-(2-methylpyridin-4-yl)oxazole-4-carboxamide]
